Test results taken from patent publication US11793755B2, “Pharmaceutical composition for intraarticular delivery” (TAIWAN LIPOSOME CO., LTD., priority 2012, dated 2023).
Where two headings read alike, the source gives them in different places.

How the values were obtained:
[1] = test system: collagen-induced arthritis; assay: Collagen-induced arthritis model, indomethacin sustained release composition (Example 6); type: in vivo, Lewis rats
Description: (§1) During the 14-day study period, the rats were examined 3 times a week for the following outcomes: • Body weight loss, which is one of the parameters for evaluating the severity of arthritis. • Clinical Visual Arthritis Score, which is a visual score which correlates with the severity of arthritis. It was graded using an articular index of each paw, ranging from 0 to 4 (0=no edema or erythema on the foot pad; 1=slight edema and erythema on the foot pad; 2=mild edema and erythema on the foot pad; 3=moderate edema and erythema on the entire foot pad and the ankle; 4=severe edema and joint rigidity of the ankle, foot and digits). The Clinical Visual Arthritis Score for each rat was the sum of the articular index of both hind paws, with a maximum score of 8. • Hind paw volume and swelling. The hind paw volume was measured by UGO Plethysmometer 7149 measuring system. The final volume data was normalized with the average body weight (ml/kg) and edema was defined as the increase in paw volume on the day of measurement relative to day 0.
An in vivo evaluation of the effect of the indomethacin sustained release composition on arthritis was performed using 18 female Lewis rats (BioLASCO Taiwan Co, Ltd., Taiwan).
The arthritis treatments were initiated at the peak of the clinical visual arthritis score, which occurred at day 19. Eighteen rats were randomly divided into three groups (6 rats in each group): (1) control group (without any treatment, labeled “Control” in FIG. 9); (2) free indomethacin group (2 mg/kg indomethacin per dose, labeled “Indomethacin (2 mg/kg) in FIG. 9); and (3) indomethacin sustained release composition group (2 mg/kg indomethacin per dose; labeled “Indomethacin-BioSeizer (2 mg/kg) in FIG. 9). The rats in each group were given no treatment (control group), daily subcutaneous injection around the arthritis joints of free indomethacin or indomethacin sustained release composition, from day 19 to day 23.

[2] = test system: arthritis induced with bovine type II collagen; assay: Single IA injection of DSP sustained release compositions in arthritic rats (Example 3); type: in vivo, Lewis rats
Description: Sixteen female rats, aged 8 weeks, were used in the study. The average body weight of the rats was from about 180 to about 200 grams.
To induce arthritis, each rat was immunized with 200 μg of bovine type II collagen (4 mg/ml stocked in 10 mM acetic acid, commercially available from Elastin Products, Owensville, USA) emulsified in Freund's incomplete adjuvant (commercially available from Sigma Chemical Co., USA) on day 0 and then again on day 7.
The rats were randomized into the following 4 study groups:
Group 1: 4 rats each received 100 μl of saline per paw (labeled “Saline Control in FIGS. 1-8)
Group 3: 4 rats each received 100 μl of the sustained release composition 1 per paw, wherein the concentration of DSP is 1 mg/ml (labeled “TLC399_1 mg/mg in FIGS. 1-4 and “TLC399_I 4 mg/ml in FIGS. 5-8).
Group 4: 4 rats each received 100 μl of the sustained release composition 2 per paw, wherein the concentration of DSP is 1.4 mg/ml (labeled “TLC399_1.4 mg/mg in FIGS. 1-4 and “TLC399_II 1.4 mg/ml in FIGS. 5-8).
The control or the DSP formulation was administered to both hind paws of the rat as a once only IA injection on day 19.

[3] = test system: arthritis induced with bovine type II collagen; assay: Four daily IA injections of DSP sustained release compositions in arthritic rats (Example 4); type: in vivo, Lewis rats; settings: four daily IA injections day 26 to day 29
Description: as §1

[4] = test system: collagen-induced arthritis
Description: as §1

[5] = test system: collagen-induced arthritis; assay: Collagen-induced arthritis model, etanercept sustained release composition (Example 8); type: in vivo, Lewis rats
[6] = day 30, doses on day 23 and day 26

For `COc1ccc2c(c1)c(CC(=O)O)c(C)n2C(=O)c1ccc(Cl)cc1` [free indomethacin, Indomethacin sodium], the “average arthritis score before treatment” value ([1]; before the first dose on day 19) was 7.4, the average arthritis score ([1]; day 20, 2 mg/kg indomethacin per dose, daily from day 19 to day 23) was 5 and the arthritis score ([1]; day 25, after termination of treatment on day 23) was 8. For the same molecule, the “time after termination of treatment until arthritis signs returned / amelioration continued” value ([1]; treatment day 19 to day 23) was 2 days.

“dexamethasone sodium phosphate [free DSP]” was tested, and the “paw swelling thickness, both paws” value ([2]; day 23, volume normalized with body weight) was “around 7.5 ml/kg”, the “clinical visual arthritis score” value ([2]; day 26, single IA injection on day 19) was 4.5 and the “clinical visual arthritis score, average” value ([2]; prior to the IA injection (day 19), sum of both hind paws, maximum 8) was 4.0. The “day on which both paws became swollen again” value ([2]; single IA injection on day 19) was 23 days, the “clinical visual arthritis score, lowest recorded” value ([3]; day 30) was 3 and the “day on which paws were swollen again / first sign of paw swelling” value [3] was 31 days. For the same molecule, the “day on which relapsed arthritis signs became severe” value [3] was 33 days.

`CN(Cc1cnc2nc(N)nc(N)c2n1)c1ccc(C(=O)N[C@@H](CCC(=O)[O-])C(=O)[O-])cc1.[Na+].[Na+]` [free methotrexate, methotrexate sodium] was tested, and the “average arthritis score before treatment” value ([4]; before the first dose on day 23) was 3.7, the average arthritis score ([4]; day 26, 1 mg/kg methotrexate per dose on day 23 and day 26) was 1.4 and the arthritis score [4, 6] was 3.5. The “time after termination of treatment until arthritis signs returned / amelioration continued” value ([4]; doses on day 23 and day 26) was 4 days.

With etanercept [free etanercept] the average arthritis score ([5]; day 26, 50 mg/kg etanercept per dose on day 23 and day 26) was 2.4, the arthritis score [5, 6] was 4 and the “time after termination of treatment until arthritis relapsed / amelioration continued” value ([5]; doses on day 23 and day 26) was 3 days.
